From patent US20070060636A1, “High enantiomeric purity dexanabinol for pharmaceutical compositions” (priority 2002, published 2007)
Where two headings read alike, the source gives them in different places.

Experiments:
[1] = Phase II study, single i.v. dose in patients with severe head trauma; format: in vivo, human; conditions: human, plasma, iv, severe TBI patients, mean ± SE; for AUC / Cmax: up to 24 hr; for Vd: read-out: Vss
Protocol: (§1) A Phase II, double masked, multi-center study was conducted to evaluate the safety and tolerance of dexanabinol of high enantiomeric purity following a single intravenous administration in patients with severe head trauma (Knoller N. et al., Crit. Care Med. 30: 548-54, 2002). Treatment was administered within 6 hours of injury, based on the therapeutic window observed in relevant animal models. Additional objectives of the study were to evaluate the long-term outcome of the patients and to determine the optimal dose for Phase III studies.
(§2) Medical information was collected en route or upon arrival at the hospital to determine a patient's suitability for enrollment and a randomized patient number was assigned. Written informed consent was obtained from relatives, all eligible patients being in coma. Antihistamines (promethazine hydrochloride PHENERGAN® 25 mg and cimetidine 50 mg) were administered by intravenous bolus injection 15 minutes prior to study drug administration. Dexanabinol was manufactured and formulated as previously described (50 mg/ml in CREMOPHOR EL®:ethanol clinical formulation) and diluted into 100 ml saline prior to injection. Solutions of dexanabinol were infused intravenously using a peristaltic pump (Ivac) at a rate of 6 ml/min (or approximately 15 min/dose). The total doses of dexanabinol scheduled to be administered were 48, 150, or 200 mg per patient. Five milliliters of blood were removed (from the contralateral arm) at the end of the infusion, at 10 and 30 min, and at 1, 3, 6, 12, and 24 hours thereafter for determination of plasma dexanabinol concentrations. Pharmacokinetic parameters were estimated by non-compartmental methods (WinNonlin Professional version 3.2) up to 24 hr post-injection.
(§3) Primary end points included intracranial pressure (ICP), cardiovascular function (heart rate, mean arterial blood pressure, cerebral perfusion pressure and electrocardiogram), clinical laboratory tests, and adverse medical events. The clinical outcome was assessed by the Glasgow outcome scale throughout a six month follow-up period. The nature and incidence of adverse medical events were similar in all groups supporting the safety of dexanabinol of high enantiomeric purity. […] Dexanabinol is currently being tested in a Phase III clinical trial for TBI.

[2] = system: severe traumatic brain injury (TBI); assay: as above; format: in vivo, human; conditions: for AUC∞/Dose: severe TBI patients, mean ± SE, normalized for dose (mg/kg)
Protocol: as §1, §2, §3

[3] = in vivo; cited from earlier work
[4] = system: intra-ocular pressure (IOP); assay: IOP lowering after topical administration in normotensive rabbits; format: in vivo, New Zealand White albino rabbits
Protocol: New Zealand White albino rabbits weighing 2-2.5 kg were acclimatized in our animal facility for at least a week prior to IOP measurements. Drug, saline and blank-vehicle groups (n=8-12 animals per group) were included. In most experiments, 50 μl drops were applied at 09:00 and measurements were taken 1 hour, 3, 5, and 7 hours later. Baseline IOP was individualized for each animal and time point prior to drug testing. IOP was measured by a Digilab Pneumatonometer, Model 30R. ΔIOP was calculated by subtracting the baseline IOP from IOP value measured after drug application at a corresponding time point. Maximal ΔIOP and area under the ΔIOP×hours curve (AUC) were calculated and averaged for each group. Data of IOP, AUC, blood pressure and toxicity were analyzed by the Wilcoxon-Rank test.

[5] = 48 mg single i.v. infusion (n = 10)
[6] = 150 mg single i.v. infusion (n = 20)
[7] = 200 mg single i.v. infusion (n = 21)

## CCCCCCC(C)(C)c1cc(O)c2c(c1)OC(C)(C)[C@H]1CC=C(CO)C[C@H]21 [dexanabinol, 1,1-dimethylheptyl-(3S,4S)-7-hydroxy-Δ^6-tetrahydrocannabinol]
[1]; [5]
  AUC(0-inf): 572 ng·h/mL
  MRT: 4.1 ± 0.7 h
  clearance: 22.6 ± 3.9 mL/min/kg
  half-life: 7 ± 0.9 h
  AUC: 548 ng·h/mL
  Cmax: 1150 ng/mL
  Vd: 6.6 ± 2.6 L/kg
[1]; [6]
  AUC(0-inf): 1480 ng·h/mL
  MRT: 3.8 ± 0.4 h
  clearance: 31 ± 5.8 mL/min/kg
  half-life: 5.3 ± 0.5 h
  AUC: 1450 ng·h/mL
  Cmax: 1970 ng/mL
  Vd: 7.5 ± 1.5 L/kg
[1]; [7]
  AUC(0-inf): 3250 ng·h/mL
  MRT: 3.5 ± 0.3 h
  clearance: 17.6 ± 1.9 mL/min/kg
  half-life: 6.3 ± 0.3 h
  AUC: 3170 ng·h/mL
  Cmax: 5790 ng/mL
  Vd: 4.2 ± 0.9 L/kg
[2]; [5]
  AUC∞/Dose: 51,846 ± 5,526 ng × min/ml
[2]; [6]
  AUC∞/Dose: 43,542 ± 4,329 ng × min/ml
[2]; [7]
  AUC∞/Dose: 69,007 ± 5,835 ng × min/ml
[2]; Glasgow outcome scale, six month follow-up
  neurological outcome: trend toward faster and better neurological outcome
[2]; human Phase II, 150 mg single i.v., reference itself
  Cmax Ratio to Phase II: 1.0
[2]; single i.v. 48, 150 or 200 mg within 6 hours of injury
  safety in severe head injury: safe and well tolerated
[2]; treated patients, without jeopardizing blood pressure
  intracranial pressure/cerebral perfusion pressure control: significantly better
[3]
  cardiovascular effects: devoid of cardiovascular effects
[4]; 0.02% topical
  AUC (ΔIOP×hours): 6.4±2.5 mmHg×Hour
  maximal ΔIOP: 1.8±0.7 mmHg
[4]; 0.05% topical
  AUC (ΔIOP×hours): 5.1±3.7 mmHg×Hour
  maximal ΔIOP: 1.8±0.9 mmHg
[4]; 0.1% topical
  maximal ΔIOP: 2.9±0.4 mmHg
[4]; 0.1% topical, ±SEM
  AUC (ΔIOP×hours): 14.6±2.2 mmHg×Hour
[4]; 0.2% topical
  AUC (ΔIOP×hours): 6.9±1.7 mmHg×Hour
  maximal ΔIOP: 2.2±0.6 mmHg
[4]; all doses 0.02%, 0.05%, 0.1%, 0.2%, masked study
  IOP lowering effect compared to the vehicle and the saline: small, yet statistically significant
[4]; daily application for three days, n=8
  IOP lowering effect over three days: sustained IOP lowering effect
